The text below walks through data of PubChem BioAssay (NCI).

Among the test systems are DU-145 prostate; SK-OV-3 ovarian; COLO 205 colon; SNB-75 CNS; A498 renal; HL-60(TB) leukemia; OVCAR-8 ovarian; HT29 colon; IGROV1 ovarian; SW-620 colon.
What all share (assay): DTP human tumour cell line panel, 48 h

Structures are written as SMILES. Values joined by “and” are separate entries in the source; they are usually repeats but may differ in a detail not shown here. Equal values may be shown once.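 Values below derive from 48-hour exposures of cells grown in 96-well plates, with endpoints linearly interpolated between the two concentrations bracketing the appropriate inhibition level. GI50 marks 50% less growth. TGI: concentration producing complete growth inhibition.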 A value given as a limit tells only on which side of the number the result lay.

A word on the GI50: it is the concentration giving 50% growth inhibition. The term TGI denotes the concentration giving total growth inhibition. A low value points to more potent growth arrest. Take `Cc1ccc(/C=N/NC(=O)c2ccccc2Oc2ccccc2)o1`: the GI50 is 73.2 µM with DU-145 prostate; 77.6 µM with SK-OV-3 ovarian; 61.3 µM in the assay on COLO 205 colon; 12.8 µM in the assay with SNB-75 CNS; over 58.5 µM with A498 renal; 22.8 µM in the assay with HL-60(TB) leukemia. Moreover, the GI50 is 39 µM with OVCAR-8 ovarian, 63.8 µM in the assay with HT29 colon, 59.5 µM in the assay with IGROV1 ovarian and over 77.6 µM with SW-620 colon. The TGI in the assay with DU-145 prostate is over 100 µM; in the assay on SK-OV-3 ovarian it was over 100 µM; with COLO 205 colon it was over 100 µM; with SNB-75 CNS it was over 100 µM; in the assay with A498 renal, over 100 µM; in the assay with HL-60(TB) leukemia, over 74.1 µM. The TGI with OVCAR-8 ovarian, in the assay on HT29 colon, in the assay with IGROV1 ovarian and in the assay on SW-620 colon was over 100 µM throughout.
For `O=C(O)CCC(c1ccccc1)(c1ccccc1)c1ccccc1`, the TGI is over 100 µM in the assay on DU-145 prostate; over 100 µM with SK-OV-3 ovarian; 97.6 µM in the assay on COLO 205 colon; over 100 µM in the assay on SNB-75 CNS; over 100 µM in the assay on A498 renal; over 90.6 µM in the assay with HL-60(TB) leukemia. In addition, the TGI in the assay with OVCAR-8 ovarian, with HT29 colon, in the assay with IGROV1 ovarian and with SW-620 colon was over 100 µM each time. In addition, the GI50 in the assay with SNB-75 CNS was over 100 µM; in the assay on IGROV1 ovarian, 71.2 µM.
In the case of `COc1cccc2c1C(=O)c1c(O)c3c(c(O)c1C2=O)C[C@@](O)(C(=O)CO)CC3OC1CC(N)C(OC2CCCCO2)C(C)O1` (some centres undefined), the TGI is 0.0489 µM in the assay on DU-145 prostate; 2.09 µM and 12 µM in the assay with SK-OV-3 ovarian; 1.16 µM in the assay on A498 renal; 1.81 µM and 17.1 µM with HT29 colon; 1.03 µM and 7.04 µM in the assay with SW-620 colon. In addition, the GI50 is 0.0465 µM in the assay with SK-OV-3 ovarian; 0.02 µM in the assay with COLO 205 colon; 0.0171 µM in the assay with SNB-75 CNS; under 0.001 µM in the assay on HL-60(TB) leukemia; 0.018 µM in the assay with OVCAR-8 ovarian; 0.0381 µM with HT29 colon. Also, the GI50 was 0.0158 µM in the assay on IGROV1 ovarian and 0.113 µM with SW-620 colon.
Take `N#C/C(=C\c1cc(O)c(O)c(O)c1)C(N)=O`: the TGI in the assay on DU-145 prostate is over 100 µM; in the assay on SK-OV-3 ovarian, over 100 µM; in the assay with COLO 205 colon, over 100 µM; with SNB-75 CNS, over 100 µM; in the assay with A498 renal, over 100 µM; in the assay with HL-60(TB) leukemia, over 81.5 µM. For the same molecule, the TGI with OVCAR-8 ovarian, in the assay on HT29 colon, in the assay on IGROV1 ovarian and in the assay on SW-620 colon was over 100 µM throughout.
As to `CNC(=O)ON(C(C)=O)C(=O)NC`, the TGI in the assay on DU-145 prostate was 135 µM; in the assay with SK-OV-3 ovarian, 276 µM; with COLO 205 colon it was 142 µM; in the assay on SNB-75 CNS, 182 µM; in the assay on A498 renal, 211 µM; in the assay with HL-60(TB) leukemia it was 37.7 µM and 29.5 µM. The TGI in the assay with OVCAR-8 ovarian turned out to be 235 µM; in the assay with HT29 colon it was 242 µM; in the assay with IGROV1 ovarian it was 241 µM; in the assay on SW-620 colon, 224 µM. Further, the GI50 is > 70 µM and 47.5 µM in the assay on COLO 205 colon; 14.2 µM and 8.38 µM in the assay on HL-60(TB) leukemia; 94.1 µM in the assay on HT29 colon; over 94 µM in the assay with SW-620 colon.
Take `CC(C)(C)[Si](C)(C)OCC1OC(n2cnc3c(=O)[nH]cnc32)CC1O` (centres undefined): the TGI in the assay on DU-145 prostate, in the assay on SK-OV-3 ovarian, with COLO 205 colon, in the assay with SNB-75 CNS, in the assay with A498 renal and in the assay on HL-60(TB) leukemia was over 100 µM each time. The total growth inhibition concentration (TGI) in the assay on OVCAR-8 ovarian, with HT29 colon, in the assay on IGROV1 ovarian and in the assay on SW-620 colon was over 100 µM each time.
Take `Cc1ccc(C[As+](c2ccccc2)(c2ccccc2)c2ccccc2)cc1`: the GI50 was 1.36 µM in the assay on DU-145 prostate; 1.82 µM in the assay with SK-OV-3 ovarian; 0.412 µM in the assay with COLO 205 colon; 1.1 µM with SNB-75 CNS; 0.581 µM in the assay with A498 renal; 0.286 µM with HL-60(TB) leukemia. Also, the GI50 was 0.599 µM in the assay on OVCAR-8 ovarian, 0.313 µM in the assay with HT29 colon, 1.17 µM in the assay with IGROV1 ovarian and 0.99 µM in the assay with SW-620 colon. Moreover, the TGI in the assay on DU-145 prostate is over 56.8 µM; in the assay on SK-OV-3 ovarian it was over 23.5 µM; with COLO 205 colon it was 2.45 µM; with SNB-75 CNS it was 10.3 µM; with A498 renal, 5.07 µM; in the assay on HL-60(TB) leukemia, 1.48 µM. Moreover, the TGI with OVCAR-8 ovarian is 15.3 µM; in the assay with HT29 colon, 11.5 µM; in the assay on IGROV1 ovarian it was 25.1 µM; with SW-620 colon, over 38.1 µM.
As for `CCCCC(=O)N(c1ccc(Nc2c3ccccc3nc3cc([N+](=O)[O-])ccc23)cc1)S(C)(=O)=O`, the GI50 in the assay with DU-145 prostate is 1.67 µM; in the assay on SK-OV-3 ovarian, 27 µM; in the assay with COLO 205 colon, 12.7 µM; with SNB-75 CNS it was 4.7 µM; with A498 renal, 1.71 µM; in the assay on HL-60(TB) leukemia it was 12.9 µM. Further, the GI50 in the assay with OVCAR-8 ovarian is 11 µM; in the assay on HT29 colon it was 13.6 µM; with IGROV1 ovarian, 6.86 µM; with SW-620 colon, 5.73 µM. In addition, the TGI in the assay on DU-145 prostate is 74 µM; in the assay on SK-OV-3 ovarian, over 100 µM; with COLO 205 colon, 36 µM; in the assay with SNB-75 CNS, 64.8 µM; in the assay on A498 renal, 13.1 µM; in the assay on HL-60(TB) leukemia, over 69.7 µM. For the same molecule, the TGI in the assay with OVCAR-8 ovarian was 78.8 µM; in the assay on HT29 colon it was 60.3 µM; in the assay on IGROV1 ovarian, over 45.8 µM; with SW-620 colon, 31 µM.
As for `O=C(/C=C/c1ccccc1)c1cccc2ccccc12`, the GI50 in the assay with DU-145 prostate is 3.63 µM; in the assay with SK-OV-3 ovarian, 3.11 µM; in the assay with COLO 205 colon, 5.51 µM; in the assay with SNB-75 CNS it was 2.19 µM; in the assay on A498 renal, 2.3 µM; in the assay with HL-60(TB) leukemia, 1.49 µM. For the same molecule, the GI50 in the assay with OVCAR-8 ovarian is 1.82 µM; in the assay with HT29 colon, 3.69 µM; in the assay with IGROV1 ovarian it was 3.4 µM; in the assay on SW-620 colon, 2.42 µM. Also, the TGI in the assay on DU-145 prostate was found to be 13 µM; in the assay on SK-OV-3 ovarian it was 11.3 µM; in the assay with COLO 205 colon, 18.2 µM; in the assay with SNB-75 CNS it was 7.27 µM; in the assay on A498 renal, 6.75 µM; in the assay with HL-60(TB) leukemia, 5.21 µM. The TGI with OVCAR-8 ovarian is 3.97 µM; with HT29 colon, 12.9 µM; in the assay on IGROV1 ovarian it was 10.9 µM; in the assay on SW-620 colon, 6 µM.
